Activity calls are given as the source filed them.
Legend:
[1] = target: Heat shock protein HSP 90-alpha (Homo sapiens, UniProt P07900); assay type: functional, organism-based
INS1 = assay: beta cell apoptosis inhibitors, cytokine rescue, dose response, luminescence, retest (AID 449756); assay type: functional, cell-based; conditions: Rattus norvegicus;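 also: cell death triggered by IL-1 beta plus TNF-alpha plus IFN-gamma mixture; protective hits raise ATP signal compared with cytokine alone wells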
Melanocortin receptor 4 = Melanocortin receptor 4 (Homo sapiens, UniProt P32245); assay: MC4R antagonist potency on cAMP, dose response, cell-based, TR-FRET, biased antagonists (AID 602298); assay type: functional;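 also: antagonist potency against agonist-stimulated cAMP production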
[2] = target: T1, DNA repair protein RAD52 homolog (Homo sapiens, UniProt P43351); assay type: functional, biochemical
T1 sequence (P43351 whole entry): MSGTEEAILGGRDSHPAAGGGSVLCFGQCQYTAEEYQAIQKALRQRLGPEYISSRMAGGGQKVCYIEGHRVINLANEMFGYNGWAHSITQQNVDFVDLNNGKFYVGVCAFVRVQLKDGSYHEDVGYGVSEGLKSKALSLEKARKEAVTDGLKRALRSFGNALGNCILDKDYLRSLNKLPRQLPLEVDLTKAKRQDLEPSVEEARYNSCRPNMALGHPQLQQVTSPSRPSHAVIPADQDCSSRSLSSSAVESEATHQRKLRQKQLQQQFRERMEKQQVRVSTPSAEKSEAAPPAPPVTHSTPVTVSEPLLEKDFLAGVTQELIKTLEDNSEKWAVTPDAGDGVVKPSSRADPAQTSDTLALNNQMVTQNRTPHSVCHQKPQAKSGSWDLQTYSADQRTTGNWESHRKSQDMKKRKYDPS

HEK293 [3] = assay: NOD1 signaling inhibitors, primary screen, cell-based, luminescence, uHTS (AID 1578); assay type: functional; conditions: Homo sapiens
HEK293 [4] = assay: cells; assay type: functional, cell-based; conditions: Homo sapiens
HEK293 [5] = assay: cells; assay type: functional, cell-based; conditions: Homo sapiens; remark: listed apart in the source
[6] = target: Neurotensin receptor type 1 (Homo sapiens, UniProt P30989); assay type: functional;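 also: Image-based confirmatory dose-response assay measuring agonist activity at NTR1; NTR1-expressing U2OS osteosarcoma cells imaged for beta-arrestin GFP spot formation; agonist potency where compounds increase beta-arrestin recruitment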
Hexokinase HKDC1 = target: T2, Hexokinase HKDC1 (Homo sapiens, UniProt Q2TB90); assay: HKDC1 hexokinase inhibitors, dose response, biochemical, W721R variant (AID 504729); assay type: functional
T2 sequence (Q2TB90 whole entry): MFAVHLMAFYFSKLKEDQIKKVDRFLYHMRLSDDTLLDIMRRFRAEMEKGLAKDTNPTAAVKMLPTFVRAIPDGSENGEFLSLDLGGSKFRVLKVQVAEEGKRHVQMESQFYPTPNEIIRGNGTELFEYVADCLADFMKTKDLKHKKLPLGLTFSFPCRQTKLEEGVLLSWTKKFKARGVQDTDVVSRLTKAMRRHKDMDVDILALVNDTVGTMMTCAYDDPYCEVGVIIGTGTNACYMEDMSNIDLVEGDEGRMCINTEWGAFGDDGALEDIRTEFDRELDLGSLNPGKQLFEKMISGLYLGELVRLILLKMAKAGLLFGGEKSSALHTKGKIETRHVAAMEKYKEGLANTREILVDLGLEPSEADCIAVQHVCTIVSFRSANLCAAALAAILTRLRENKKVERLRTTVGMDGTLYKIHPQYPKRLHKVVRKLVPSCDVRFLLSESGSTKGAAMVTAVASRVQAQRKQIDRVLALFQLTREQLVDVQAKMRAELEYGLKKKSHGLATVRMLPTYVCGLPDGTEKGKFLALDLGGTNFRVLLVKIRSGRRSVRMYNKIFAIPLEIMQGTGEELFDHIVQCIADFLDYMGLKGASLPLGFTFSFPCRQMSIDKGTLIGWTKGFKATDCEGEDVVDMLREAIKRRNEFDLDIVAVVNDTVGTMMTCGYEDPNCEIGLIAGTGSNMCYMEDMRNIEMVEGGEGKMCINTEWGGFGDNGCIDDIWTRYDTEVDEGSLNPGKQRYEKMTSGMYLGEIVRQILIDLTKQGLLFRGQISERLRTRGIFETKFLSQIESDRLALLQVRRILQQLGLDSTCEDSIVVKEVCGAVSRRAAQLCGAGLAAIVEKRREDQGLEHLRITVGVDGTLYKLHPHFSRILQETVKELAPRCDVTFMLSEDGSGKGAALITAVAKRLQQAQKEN

Fatty acid synthase [7] = target: T3, Fatty acid synthase (Homo sapiens, UniProt P49327); assay: FAS thioesterase domain inhibitors, dose response, biochemical, endpoint fluorescence intensity, uHTS hits (AID 624327); assay type: functional;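 also: fluorescence from hydrolysis of an O-methyl fluorescein acyl ester substrate by the enzyme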
Fatty acid synthase [8] = target: T3, Fatty acid synthase; assay: FAS thioesterase domain inhibitors, dose response, biochemical, kinetic fluorescence intensity (AID 624326); assay type: functional;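 also: rate of fluorescence rise from hydrolysis of a fluorogenic O-methyl fluorescein ester substrate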

T3 sequence (P49327 whole entry, the tested form may be a part): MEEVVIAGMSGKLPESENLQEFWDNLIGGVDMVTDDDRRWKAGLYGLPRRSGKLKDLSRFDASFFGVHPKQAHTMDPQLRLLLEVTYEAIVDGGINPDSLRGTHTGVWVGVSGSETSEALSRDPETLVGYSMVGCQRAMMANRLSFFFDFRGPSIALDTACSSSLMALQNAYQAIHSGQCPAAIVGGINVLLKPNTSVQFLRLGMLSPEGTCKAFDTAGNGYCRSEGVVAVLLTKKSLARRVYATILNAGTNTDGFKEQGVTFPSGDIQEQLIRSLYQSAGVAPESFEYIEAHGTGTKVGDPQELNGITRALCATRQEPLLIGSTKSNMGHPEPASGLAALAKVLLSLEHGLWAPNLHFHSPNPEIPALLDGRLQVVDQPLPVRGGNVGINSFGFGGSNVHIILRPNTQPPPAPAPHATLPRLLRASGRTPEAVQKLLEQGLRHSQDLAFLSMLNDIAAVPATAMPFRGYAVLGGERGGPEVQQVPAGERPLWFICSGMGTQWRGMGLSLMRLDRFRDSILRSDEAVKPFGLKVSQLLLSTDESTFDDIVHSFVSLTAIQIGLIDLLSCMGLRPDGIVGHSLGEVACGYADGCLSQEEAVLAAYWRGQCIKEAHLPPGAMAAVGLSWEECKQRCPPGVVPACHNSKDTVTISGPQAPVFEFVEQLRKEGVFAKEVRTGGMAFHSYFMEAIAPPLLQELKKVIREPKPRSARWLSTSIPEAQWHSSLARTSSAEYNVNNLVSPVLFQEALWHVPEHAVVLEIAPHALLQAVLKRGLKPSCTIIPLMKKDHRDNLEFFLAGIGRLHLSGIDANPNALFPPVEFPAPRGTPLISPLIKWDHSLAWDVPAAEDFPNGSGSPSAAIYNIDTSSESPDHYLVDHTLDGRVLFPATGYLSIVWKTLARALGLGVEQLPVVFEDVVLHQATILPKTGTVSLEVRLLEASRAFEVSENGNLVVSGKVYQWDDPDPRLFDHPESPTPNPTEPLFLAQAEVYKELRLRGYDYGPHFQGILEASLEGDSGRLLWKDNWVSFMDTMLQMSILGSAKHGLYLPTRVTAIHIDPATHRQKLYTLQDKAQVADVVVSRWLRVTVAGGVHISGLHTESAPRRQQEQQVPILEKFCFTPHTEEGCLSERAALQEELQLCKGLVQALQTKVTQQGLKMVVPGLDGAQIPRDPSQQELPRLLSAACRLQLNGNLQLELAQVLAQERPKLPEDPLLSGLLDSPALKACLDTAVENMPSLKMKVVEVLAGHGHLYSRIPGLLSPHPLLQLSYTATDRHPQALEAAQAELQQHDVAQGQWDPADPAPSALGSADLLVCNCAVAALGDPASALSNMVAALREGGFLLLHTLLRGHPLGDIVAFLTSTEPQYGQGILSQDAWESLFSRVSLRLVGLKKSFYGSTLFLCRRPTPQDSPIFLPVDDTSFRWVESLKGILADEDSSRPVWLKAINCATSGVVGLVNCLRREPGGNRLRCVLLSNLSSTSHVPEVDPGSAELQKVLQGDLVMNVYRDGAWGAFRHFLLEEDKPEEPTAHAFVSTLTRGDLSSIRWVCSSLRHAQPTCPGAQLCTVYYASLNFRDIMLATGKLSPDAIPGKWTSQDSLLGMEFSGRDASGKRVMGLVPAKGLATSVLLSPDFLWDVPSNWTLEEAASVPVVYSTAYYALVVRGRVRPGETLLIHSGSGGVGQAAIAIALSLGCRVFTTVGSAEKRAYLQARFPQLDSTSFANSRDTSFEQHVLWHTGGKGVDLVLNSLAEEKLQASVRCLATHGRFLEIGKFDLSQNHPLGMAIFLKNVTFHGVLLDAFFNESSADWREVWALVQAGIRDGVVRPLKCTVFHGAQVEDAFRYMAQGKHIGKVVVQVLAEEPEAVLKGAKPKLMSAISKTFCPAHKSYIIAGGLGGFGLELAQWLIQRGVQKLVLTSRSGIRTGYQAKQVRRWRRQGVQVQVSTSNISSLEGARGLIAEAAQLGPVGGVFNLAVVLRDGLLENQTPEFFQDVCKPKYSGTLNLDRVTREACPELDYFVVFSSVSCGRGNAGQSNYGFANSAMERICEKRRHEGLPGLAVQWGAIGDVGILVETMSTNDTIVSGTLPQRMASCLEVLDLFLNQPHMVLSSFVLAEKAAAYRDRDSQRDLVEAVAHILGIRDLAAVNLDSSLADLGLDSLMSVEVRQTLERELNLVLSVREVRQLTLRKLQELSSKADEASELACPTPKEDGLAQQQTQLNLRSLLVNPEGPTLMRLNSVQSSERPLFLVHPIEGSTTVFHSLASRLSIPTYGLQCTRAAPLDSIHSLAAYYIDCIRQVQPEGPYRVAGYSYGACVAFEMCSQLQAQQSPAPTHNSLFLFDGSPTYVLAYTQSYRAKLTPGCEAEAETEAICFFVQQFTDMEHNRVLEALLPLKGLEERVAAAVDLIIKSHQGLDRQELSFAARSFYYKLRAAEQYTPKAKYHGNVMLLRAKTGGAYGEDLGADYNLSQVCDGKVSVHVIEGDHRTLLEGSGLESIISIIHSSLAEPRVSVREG
Melanocortin receptor 4, sequence (P32245 whole entry): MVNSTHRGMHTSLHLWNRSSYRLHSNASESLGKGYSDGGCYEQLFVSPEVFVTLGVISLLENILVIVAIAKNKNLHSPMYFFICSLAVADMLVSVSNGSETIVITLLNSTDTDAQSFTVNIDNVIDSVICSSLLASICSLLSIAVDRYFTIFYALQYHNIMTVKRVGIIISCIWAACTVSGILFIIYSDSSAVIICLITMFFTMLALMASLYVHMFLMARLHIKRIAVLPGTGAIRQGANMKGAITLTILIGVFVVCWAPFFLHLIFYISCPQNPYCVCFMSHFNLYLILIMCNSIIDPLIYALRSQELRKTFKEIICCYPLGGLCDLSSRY
Neurotensin receptor type 1, sequence (P30989 whole entry): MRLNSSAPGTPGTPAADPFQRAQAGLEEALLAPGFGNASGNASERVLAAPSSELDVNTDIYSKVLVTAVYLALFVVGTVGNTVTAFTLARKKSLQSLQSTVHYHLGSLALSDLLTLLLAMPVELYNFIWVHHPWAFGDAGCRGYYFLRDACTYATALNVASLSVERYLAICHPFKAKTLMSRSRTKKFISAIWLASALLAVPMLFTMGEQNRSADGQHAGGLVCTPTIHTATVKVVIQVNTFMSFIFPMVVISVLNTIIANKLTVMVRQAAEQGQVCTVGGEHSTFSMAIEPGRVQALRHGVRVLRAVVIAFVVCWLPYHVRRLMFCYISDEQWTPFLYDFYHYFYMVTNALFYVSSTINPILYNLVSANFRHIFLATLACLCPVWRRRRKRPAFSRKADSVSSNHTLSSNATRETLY

**Q.** `CCCCCCCCCC[N+](C)(C)CC/C=C1/c2ccccc2Sc2ccc(Cl)cc21` was tested. Which AC50 [1] did it give?
**A.** 8.12 µM (active)

**Q.** What about the AC50 (INS1) of the same compound?
**A.** 5.67 µM (active)

**Q.** And the IC50 (Melanocortin receptor 4)?
**A.** 31.2 µM (inactive)

**Q.** `COc1cc(/C=C/c2cc[n+](C)cc2)ccc1OCC(=O)Nc1ccc(Cl)c(Cl)c1` was tested. Which AC50 [2] did it give?
**A.** 8.27 µM (active)

**Q.** `O=C(NCCc1ccccc1)C(c1cccs1)N(C(=O)CCl)c1ccc(Cl)cc1` (stereo unspecified) was tested. Which EC50 (HEK293 [3]) did it give?
**A.** 5.3 µM (active)

**Q.** And the IC50 (HEK293 [4])?
**A.** 11.5 µM (active)

**Q.** What about the IC50 (HEK293 [5]) of the same compound?
**A.** > 20 µM (inactive)

**Q.** What about the EC50 [6] of the same compound?
**A.** 2.5 µM (active)

**Q.** And the IC50 (Hexokinase HKDC1)?
**A.** 35.7 µM (inactive)

**Q.** What about the IC50 (Fatty acid synthase [7]) of the same compound?
**A.** 7.91 µM (active)

**Q.** What about the IC50 (Fatty acid synthase [8]) of the same compound?
**A.** 10.3 µM (active)
